Assay results published in patent US11485731B2, “Compounds and methods useful in the treatment of a PRMT5-mediated disorder” (ARGONAUT THERAPEUTICS LIMITED, priority 2017, dated 2022).

biological target: human PRMT5/MEP50 (Homo sapiens (Human), UniProt O14744); assay: PRMT5 chemiluminescent assay; assay type: biochemical; conditions: human PRMT5/MEP50 expressed in HEK293 cells; biotinylated histone peptides; Histone H4 monomethyl R3 antibody; chemiluminescent readout
Procedure: A PRMT5 chemiluminescent assay was used to measure the IC50 activity of PRMT5 of the compounds of Examples 1A to 7 above. Biotinylated histone peptides were synthesized and attached to 384-well plates. Compound serial dilutions were performed and added to the assay plate. Histone H4 monomethyl R3 antibody was obtained from Abcam. A master mix for each well was prepared and human PRMT5/MEP50 (expressed in HEK293 cells) diluted in assay buffer to a concentration of 5 ng/μL. The reaction was incubated and slowly rotated for 60 minutes at the point of PRMT5/MEP50 addition. The supernatant from the wells was removed and blocking buffer was added to each well and rotated for 10 minutes. The primary antibody was diluted and added to every well for 60 minutes, before it was removed and the wells washed. The horse raddish peroxidase (HRP)-coupled secondary antibody was diluted and added to each well with an incubation time of 30 minutes. The HRP chemiluminescent substrate was added to every well. The plate was read on a Flourstar Omega BMG Labtech instrument (Ortenberg, Germany) and the analysis of IC50 was performed using the Flourstar Omega BMG Labtech software.

Chain of human PRMT5/MEP50 (O14744 whole entry): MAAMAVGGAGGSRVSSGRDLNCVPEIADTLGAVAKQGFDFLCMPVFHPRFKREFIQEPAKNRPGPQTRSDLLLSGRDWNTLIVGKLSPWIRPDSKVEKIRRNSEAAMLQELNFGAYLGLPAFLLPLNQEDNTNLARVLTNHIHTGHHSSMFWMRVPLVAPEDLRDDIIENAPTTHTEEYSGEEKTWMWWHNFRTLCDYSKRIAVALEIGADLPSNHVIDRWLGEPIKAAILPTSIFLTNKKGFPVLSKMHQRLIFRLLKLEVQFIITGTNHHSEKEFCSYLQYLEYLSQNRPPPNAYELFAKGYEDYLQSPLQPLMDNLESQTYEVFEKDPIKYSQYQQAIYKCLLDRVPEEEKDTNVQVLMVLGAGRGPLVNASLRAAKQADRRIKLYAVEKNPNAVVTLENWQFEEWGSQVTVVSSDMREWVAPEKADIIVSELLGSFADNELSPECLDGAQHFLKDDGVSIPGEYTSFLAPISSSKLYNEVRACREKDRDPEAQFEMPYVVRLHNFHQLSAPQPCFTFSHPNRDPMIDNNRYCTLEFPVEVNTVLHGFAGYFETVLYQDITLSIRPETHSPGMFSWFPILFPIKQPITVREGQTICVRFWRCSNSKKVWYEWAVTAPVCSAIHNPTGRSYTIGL
Chain of human PRMT5/MEP50 (Q9BQA1 whole entry partner): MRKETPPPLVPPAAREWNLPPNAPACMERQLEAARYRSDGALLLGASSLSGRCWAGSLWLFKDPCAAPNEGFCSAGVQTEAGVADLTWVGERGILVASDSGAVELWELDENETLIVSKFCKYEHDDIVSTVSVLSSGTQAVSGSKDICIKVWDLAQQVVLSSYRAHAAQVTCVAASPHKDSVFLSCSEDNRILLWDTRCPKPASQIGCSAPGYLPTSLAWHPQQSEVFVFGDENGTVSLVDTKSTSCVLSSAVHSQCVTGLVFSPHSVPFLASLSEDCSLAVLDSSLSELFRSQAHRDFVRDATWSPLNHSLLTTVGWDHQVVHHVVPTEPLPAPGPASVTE

| Structure (SMILES) | IC50 [nM] |
| --- | --- |
| O=C(NC[C@H](O)CN1CCc2ccccc2C1)N1CCC[C@@H](c2ccccc2)C1 (single isomer, unassigned) [Example 5A, (S)-N-((S)-3-(3,4-dihydroisoquinolin-2(1H)-yl)-2-hydroxypropyl)-3-phenylpiperidine-1-carboxamide or (R)-N-((S)-3-(3,4-dihydroisoquinolin-2(1H)-yl)-2-hydroxypropyl)-3-phenylpiperidine-1-carboxamide] | 26 |
| O=C(NC[C@H](O)CN1CCc2ccccc2C1)N1CCC[C@@H](c2ccccc2)C1 (single isomer, unassigned) [Example 5B, (S)-N-((S)-3-(3,4-dihydroisoquinolin-2(1H)-yl)-2-hydroxypropyl)-3-phenylpiperidine-1-carboxamide or (R)-N-((S)-3-(3,4-dihydroisoquinolin-2(1H)-yl)-2-hydroxypropyl)-3-phenylpiperidine-1-carboxamide] | 599 |
| O=C(NC[C@H](O)CN1CCc2ccccc2C1)N1CCS[C@@H](c2ccccc2)C1 (single isomer, unassigned) [Example 5C, (S)-N-((S)-3-(3,4-dihydroisoquinolin-2(1H)-yl)-2-hydroxypropyl)-2-phenylthiomorpholine-4-carboxamide or (R)-N-((S)-3-(3,4-dihydroisoquinolin-2(1H)-yl)-2-hydroxypropyl)-2-phenylthiomorpholine-4-carboxamide] | 17 |
| O=C(NC[C@H](O)CN1CCc2ccccc2C1)N1CCS[C@@H](c2ccccc2)C1 (single isomer, unassigned) [Example 5D, (S)-N-((S)-3-(3,4-dihydroisoquinolin-2(1H)-yl)-2-hydroxypropyl)-2-phenylthiomorpholine-4-carboxamide or (R)-N-((S)-3-(3,4-dihydroisoquinolin-2(1H)-yl)-2-hydroxypropyl)-2-phenylthiomorpholine-4-carboxamide] | 101 |
| O=C(NC[C@H](O)CN1CCc2ccccc2C1)N1CCC[C@H](c2ccccn2)C1 (single isomer, unassigned) [Example 5E, (S)-N-((S)-3-(3,4-dihydroisoquinolin-2(1H)-yl)-2-hydroxypropyl)-3-(pyridin-2-yl)piperidine-1-carboxamide or (R)-N-((S)-3-(3,4-dihydroisoquinolin-2(1H)-yl)-2-hydroxypropyl)-3-(pyridin-2-yl)piperidine-1-carboxamide] | 81 |
| O=C(NC[C@H](O)CN1CCc2ccccc2C1)N1CCC[C@H](c2ccccn2)C1 (single isomer, unassigned) [Example 5F, (S)-N-((S)-3-(3,4-dihydroisoquinolin-2(1H)-yl)-2-hydroxypropyl)-3-(pyridin-2-yl)piperidine-1-carboxamide or (R)-N-((S)-3-(3,4-dihydroisoquinolin-2(1H)-yl)-2-hydroxypropyl)-3-(pyridin-2-yl)piperidine-1-carboxamide] | 97 |
| O=C(NC[C@H](O)CN1CCc2ccccc2C1)N1CCC[C@H](C2CCOCC2)C1 (single isomer, unassigned) [Example 5G, (R)-N-((S)-3-(3,4-dihydroisoquinolin-2(1H)-yl)-2-hydroxypropyl)-3-(tetrahydro-2H-pyran-4-yl)piperidine-1-carboxamide compound or (S)-N-((S)-3-(3,4-dihydroisoquinolin-2(1H)-yl)-2-hydroxypropyl)-3-(tetrahydro-2H-pyran-4-yl)piperidine-1-carboxamide] | 394 |
| O=C(NC[C@H](O)CN1CCc2ccccc2C1)N1CCC[C@H](C2CCOCC2)C1 (single isomer, unassigned) [Example 5H, (R)-N-((S)-3-(3,4-dihydroisoquinolin-2(1H)-yl)-2-hydroxypropyl)-3-(tetrahydro-2H-pyran-4-yl)piperidine-1-carboxamide compound or (S)-N-((S)-3-(3,4-dihydroisoquinolin-2(1H)-yl)-2-hydroxypropyl)-3-(tetrahydro-2H-pyran-4-yl)piperidine-1-carboxamide] | 511 |
| O=C(NCC(O)CN1CCc2ccccc2C1)N1CCC(c2ccccc2)C1 (stereo not shown) [Example 1A, N-(3-(3,4-dihydroisoquinolin-2(1H)-yl)-2-hydroxypropyl)-3-phenylpyrrolidine-1-carboxamide] | 290 |
| O=C(NCC(O)CN1CCc2sccc2C1)N1CCc2ccccc2C1 (stereo not shown) [Example 1AA, N-(3-(6,7-dihydrothieno[3,2-c]pyridin-5(4H)-yl)-2-hydroxypropyl)-3,4-dihydroisoquinoline-2(1H)-carboxamide] | 342 |
| O=C(NCC(O)CN1CCc2sccc2C1)N1CCCC(c2ccccc2)C1 (stereo not shown) [Example 1AC, N-(3-(6,7-dihydrothieno[3,2-c]pyridin-5(4H)-yl)-2-hydroxypropyl)-3-phenylpiperidine-1-carboxamide] | 384 |
| O=C(NCC(O)CN1CCc2ccsc2C1)N1CCCC(c2ccccc2)C1 (stereo not shown) [Example 1AD, N-(3-(4,7-dihydrothieno[2,3-c]pyridin-6(5H)-yl)-2-hydroxypropyl)-3-phenylpiperidine-1-carboxamide] | 652 |
| O=C(NCC(O)CN1CCc2sccc2C1)N1CCC(c2ccccc2)C1 (stereo not shown) [Example 1AE, N-(3-(6,7-dihydrothieno[3,2-c]pyridin-5(4H)-yl)-2-hydroxypropyl)-3-phenylpyrrolidine-1-carboxamide] | 72 |
| O=C(NC[C@H](O)CN1CCc2ccccc2C1)N1CCCC(c2ccccc2)C1 (stereo partly drawn) [Example 1AG, (S)-N-((S)-3-(3,4-dihydroisoquinolin-2(1H)-yl)-2-hydroxypropyl)-3-phenylpiperidine-1-carboxamide] | 185 |
| O=C(NC[C@@H](O)CN1CCc2ccccc2C1)N1CCC[C@@H](c2ccccc2)C1 [Example 1AI, (S)-N-((R)-3-(3,4-dihydroisoquinolin-2(1H)-yl)-2-hydroxypropyl)-3-phenylpiperidine-1-carboxamide] | 3220 |
| O=C(NC[C@H](O)CN1CCc2ccccc2C1)N1CCCc2ccccc21 [Example 1AJ, (S)-N-(3-(3,4-dihydroisoquinolin-2(1H)-yl)-2-hydroxypropyl)-3,4-dihydroquinoline-1(2H)-carboxamide] | 80 |
| O=C(NC[C@@H](O)CN1CCc2ccccc2C1)N1CCCc2ccccc21 [Example 1AK, (R)-N-(3-(3,4-dihydroisoquinolin-2(1H)-yl)-2-hydroxypropyl)-3,4-dihydroquinoline-1(2H)-carboxamide] | 5980 |
| O=C(NC[C@H](O)CN1CCc2ccccc2C1)N1CCc2ccccc2C1 [Example 1AL, (S)-N-(3-(3,4-dihydroisoquinolin-2(1H)-yl)-2-hydroxypropyl)-3,4-dihydroisoquinoline-2(1H)-carboxamide] | 30 |
| O=C(NC[C@@H](O)CN1CCc2ccccc2C1)N1CCc2ccccc2C1 [Example 1AM, (R)-N-(3-(3,4-dihydroisoquinolin-2(1H)-yl)-2-hydroxypropyl)-3,4-dihydroisoquinoline-2(1H)-carboxamide] | 1500 |
| O=C(NC[C@H](O)CN1CCc2ccccc2C1)N1CCC[C@@H](c2ccccc2)C1 [Example 1AN, (S)-N-((S)-3-(3,4-dihydroisoquinolin-2(1H)-yl)-2-hydroxypropyl)-3-phenylpiperidine-1-carboxamide] | 14 |
| O=C(NC[C@H](O)CN1CCc2ccccc2C1)N1CCC[C@H](c2ccccc2)C1 [Example 1AO, (R)-N-((S)-3-(3,4-dihydroisoquinolin-2(1H)-yl)-2-hydroxypropyl)-3-phenylpiperidine-1-carboxamide] | 9 |
| CC(=O)N1CCCN(C(=O)NC[C@H](O)CN2CCc3ccccc3C2)CC1 [Example 1AP, (S)-4-acetyl-N-(3-(3,4-dihydroisoquinolin-2(1H)-yl)-2-hydroxypropyl)-1,4-diazepane-1-carboxamide] | 484 |
| CS(=O)(=O)N1CCCN(C(=O)NC[C@H](O)CN2CCc3ccccc3C2)CC1 [Example 1AQ, (S)-N-(3-(3,4-dihydroisoquinolin-2(1H)-yl)-2-hydroxypropyl)-4-(methylsulfonyl)-1,4-diazepane-1-carboxamide] | 77 |
| O=C(NC[C@H](O)CN1CCc2ccccc2C1)N1CCCN(C(=O)c2ccccc2)CC1 [Example 1AR, (S)-4-benzoyl-N-(3-(3,4-dihydroisoquinolin-2(1H)-yl)-2-hydroxypropyl)-1,4-diazepane-1-carboxamide] | 658 |
| COC(=O)N1CCCN(C(=O)NC[C@H](O)CN2CCc3ccccc3C2)CC1 [Example 1AS, Methyl (S)-4-((3-(3,4-dihydroisoquinolin-2(1H)-yl)-2-hydroxypropyl)carbamoyl)-1,4-diazepane-1-carboxylate] | 112 |
| O=C(NC[C@H](O)CN1CCc2ccccc2C1)N1CCCSCC1 [Example 1AT, (S)-N-(3-(3,4-dihydroisoquinolin-2(1H)-yl)-2-hydroxypropyl)-1,4-thiazepane-4-carboxamide] | 691 |
| O=C(NC[C@H](O)CN1CCc2ccccc2C1)N1CCC[S+]([O-])CC1 (stereo partly drawn) [Example 1AU, N-((S)-3-(3,4-dihydroisoquinolin-2(1H)-yl)-2-hydroxypropyl)-1,4-thiazepane-4-carboxamide 1-oxide] | 31200 |
| O=C(NC[C@H](O)CN1CCc2ccccc2C1)N1CCCS(=O)(=O)CC1 [Example 1AV, (S)-N-(3-(3,4-dihydroisoquinolin-2(1H)-yl)-2-hydroxypropyl)-1,4-thiazepane-4-carboxamide 1,1-dioxide] | 3140 |
